Legend:
[1] = target: T1, Stimulator of interferon genes protein (Homo sapiens, UniProt Q86WV6); experiment: Activation of STING in human THP-1-Dual cells assessed as induction of type I IFNs by measuring stimulation of IRF pathway incubated for 48 hrs by luciferase reporter gene assay
[2] = target: T1, Stimulator of interferon genes protein; experiment: Activation of STING in human THP-1-Dual cells assessed as induction of type I IFNs by measuring stimulation of NF-kappaB pathway incubated for 48 hrs by luciferase reporter gene assay

T1 sequence (Q86WV6 whole entry): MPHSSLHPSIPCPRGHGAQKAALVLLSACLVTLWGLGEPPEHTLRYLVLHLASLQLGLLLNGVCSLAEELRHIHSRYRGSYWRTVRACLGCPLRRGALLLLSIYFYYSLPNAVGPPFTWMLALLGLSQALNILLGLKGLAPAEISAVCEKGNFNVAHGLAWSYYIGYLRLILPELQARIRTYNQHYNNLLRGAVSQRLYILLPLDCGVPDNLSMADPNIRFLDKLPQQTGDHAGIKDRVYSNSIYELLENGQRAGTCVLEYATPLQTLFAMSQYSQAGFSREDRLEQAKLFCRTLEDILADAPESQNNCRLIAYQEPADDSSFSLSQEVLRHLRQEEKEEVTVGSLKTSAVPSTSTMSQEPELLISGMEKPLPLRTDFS

Row | Structure (SMILES) | EC50 [1] [nM] | EC50 [2] [µM]
1 | Nc1ncnc2c1ncn2[C@@H]1O[C@@H]2COP(=O)(O)O[C@H]3C[C@H](n4cnc5c(O)ncnc54)O[C@@H]3COP(=O)(O)O[C@H]2[C@H]1F | 1400 | 25.5
2 | Nc1ncnc2c1ncn2[C@@H]1O[C@@H]2COP(=O)(O)O[C@H]3[C@@H](F)[C@H](n4cnc5c(O)ncnc54)O[C@@H]3COP(=O)(O)O[C@H]2[C@H]1F | 1100 | 15.4
3 | Nc1ncnc2c1ncn2[C@H]1C[C@@H]2OP(=O)(O)OC[C@H]3O[C@@H](n4cnc5c(O)ncnc54)[C@H](F)[C@@H]3OP(=O)(O)OC[C@H]2O1 | 2300 | 32.3
4 | Nc1ncnc2c1ncn2[C@H]1C[C@@H]2OP(=O)(O)OC[C@H]3O[C@@H](n4cnc5c(O)ncnc54)C[C@@H]3OP(=O)(O)OC[C@H]2O1 |  | 62.3

The next compounds have a lower EC50 [2] than those just listed; values first:

Row | EC50 [1] [nM] | EC50 [2] [µM] | Structure (SMILES)
5 | 1600 | 7.8 | Nc1ncnc2c1ncn2[C@@H]1O[C@@H]2COP(=O)(S)O[C@H]3[C@@H](O)[C@H](n4cnc5c(O)ncnc54)O[C@@H]3COP(=O)(S)O[C@H]2[C@H]1O (stereo partly specified)
6 | 300 | 1.6 | Nc1ncnc2c1ncn2[C@@H]1O[C@@H]2COP(=O)(S)O[C@H]3[C@@H](F)[C@H](n4cnc5c(O)ncnc54)O[C@@H]3COP(=O)(S)O[C@H]2[C@H]1F (stereo partly specified)

From BindingDB's records for doi:10.1021/acs.jmedchem.6b01300 (Invivogen, 2016)
